One may read the IC50 as the concentration that inhibits the measured activity by half. The term AC50 denotes the midpoint of the concentration-response curve, whichever way the signal moves. The CC50 is the concentration that lowers cell viability or growth by half.

Calls of active or inactive are those of the source.

The test system of one assay is Jurkat. Description: SAR Analysis of small molecule inhibitors of both B-cell and T-cell specific antigen receptor-induced NF-kB activation in a Jurkat cell line using a luminescence assay. [Related pubchem assays (depositor defined):AID435003, AID435022, AID465, AID489029]. Type of assay: functional, cell-based. As to conditions: Homo sapiens.
In assay [1] the test system is HEK293. The experiment in a line: SAR Analysis of small molecule inhibitors of both B-cell and T-cell specific antigen receptor-induced NF-kB activation in a HEK-293T cell line using a luminescence assay. [Related pubchem assays (depositor defined):AID435003, AID435022, AID465, AID489019, AID489029]. The format is functional, cell-based. The following applies: Homo sapiens.

In assay [2] the test system is HEK293. Description: cytotoxicity in HEK293T NF-kB-Luc cells, SAR follow-up, cytotoxicity control for NF-kB activator project, cell-based, resazurin fluorescence (AID 493251). The format is functional. The following applies: Homo sapiens. In general terms: The colour change of resazurin is a common sign of viable cells or microbes.
Assay [3] has as its target Dual specificity tyrosine-phosphorylation-regulated kinase 1A (Rattus norvegicus, UniProt Q63470). Type of assay: biochemical, Homo sapiens.
The target of a further assay is Protein Rev (Human immunodeficiency virus type 1 group M subtype B (isolate HXB2)(HIV-1), UniProt P04618). Description: inhibitors of Rev binding to RRE RNA, dose response, biochemical, fluorescence polarization, HIV-1 (AID 434976). On the set-up: species or system Human immunodeficiency virus 1. On the technique in general: In fluorescence polarisation assays a small probe gives low polarisation when free and higher when bound to something large.
Sequence of Protein Rev (P04618 whole entry): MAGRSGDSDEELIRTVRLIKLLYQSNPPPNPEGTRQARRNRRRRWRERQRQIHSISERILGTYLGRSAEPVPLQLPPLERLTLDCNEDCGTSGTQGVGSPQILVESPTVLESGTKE

For assay [4], the target named is Female germline-specific tumor suppressor gld-1 (Caenorhabditis elegans, UniProt Q17339). The experiment in a line: inhibitors of GLD-1 binding to TGE RNA, dose response, biochemical, fluorescence polarization, C. elegans (AID 2802).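 Note: fluorescence polarization of labeled TGE RNA bound by purified gld-1 protein.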
Sequence of Female germline-specific tumor suppressor gld-1 (Q17339 whole entry): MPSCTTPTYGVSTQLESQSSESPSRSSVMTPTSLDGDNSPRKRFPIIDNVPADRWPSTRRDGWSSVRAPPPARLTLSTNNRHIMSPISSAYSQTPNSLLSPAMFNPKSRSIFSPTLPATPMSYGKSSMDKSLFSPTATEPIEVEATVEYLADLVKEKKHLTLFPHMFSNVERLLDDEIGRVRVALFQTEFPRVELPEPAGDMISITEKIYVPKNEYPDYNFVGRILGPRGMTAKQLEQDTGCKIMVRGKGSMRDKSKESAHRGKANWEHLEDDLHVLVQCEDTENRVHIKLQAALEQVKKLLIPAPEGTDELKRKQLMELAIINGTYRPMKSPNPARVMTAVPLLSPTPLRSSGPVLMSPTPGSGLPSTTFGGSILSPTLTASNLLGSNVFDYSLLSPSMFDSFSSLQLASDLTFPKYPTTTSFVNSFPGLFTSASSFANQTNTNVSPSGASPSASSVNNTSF
A further assay concerns Vero. Description: Vero cell cytotoxicity, cytotoxicity control for flavivirus capping enzyme inhibitors (AID 588742). The format is functional. The following applies: Chlorocebus sabaeus.
The next assay has as its target Genome polyprotein (dengue virus type 2, UniProt P29990). Description: Dengue-2 NS5 methyltransferase inhibitors, primary screen, biochemical, confirmation dose response (AID 588689). The format is functional.
The target of the next assay is Phospholipase D2 (Homo sapiens, UniProt O14939). The experiment in a line: PLD2 inhibitor potency in cells, dose response (AID 602147).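 Note: cellular assay in HEK293 cells overexpressing GFP-tagged PLD2.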 The format is functional.
Sequence of Phospholipase D2 (O14939 whole entry): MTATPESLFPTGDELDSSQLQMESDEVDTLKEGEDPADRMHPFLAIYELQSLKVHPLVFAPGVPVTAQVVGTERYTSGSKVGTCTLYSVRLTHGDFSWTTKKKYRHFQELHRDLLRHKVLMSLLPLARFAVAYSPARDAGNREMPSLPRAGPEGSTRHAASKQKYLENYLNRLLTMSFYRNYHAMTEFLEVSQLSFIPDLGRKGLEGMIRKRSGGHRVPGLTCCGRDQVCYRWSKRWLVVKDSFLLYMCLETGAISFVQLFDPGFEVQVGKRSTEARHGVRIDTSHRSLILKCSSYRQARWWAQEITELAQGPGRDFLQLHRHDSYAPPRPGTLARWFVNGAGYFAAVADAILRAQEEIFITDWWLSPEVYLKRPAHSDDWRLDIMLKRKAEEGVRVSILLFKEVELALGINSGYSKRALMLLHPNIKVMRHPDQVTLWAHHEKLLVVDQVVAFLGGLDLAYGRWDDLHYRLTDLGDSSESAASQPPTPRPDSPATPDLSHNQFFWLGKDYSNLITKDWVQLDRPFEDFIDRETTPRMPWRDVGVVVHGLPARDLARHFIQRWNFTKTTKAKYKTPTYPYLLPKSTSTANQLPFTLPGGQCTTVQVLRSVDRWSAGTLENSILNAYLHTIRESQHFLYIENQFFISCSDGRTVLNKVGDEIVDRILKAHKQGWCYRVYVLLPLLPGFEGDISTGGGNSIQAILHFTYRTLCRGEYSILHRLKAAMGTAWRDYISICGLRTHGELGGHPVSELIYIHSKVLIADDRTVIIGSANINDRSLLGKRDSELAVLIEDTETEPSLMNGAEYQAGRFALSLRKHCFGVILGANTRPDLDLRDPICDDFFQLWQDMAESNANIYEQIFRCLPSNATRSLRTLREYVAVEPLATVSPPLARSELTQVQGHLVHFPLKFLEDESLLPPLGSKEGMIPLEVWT
In another assay the target is T1, Phospholipase D1 (Homo sapiens, UniProt Q13393).
T1 sequence (Q13393 whole entry): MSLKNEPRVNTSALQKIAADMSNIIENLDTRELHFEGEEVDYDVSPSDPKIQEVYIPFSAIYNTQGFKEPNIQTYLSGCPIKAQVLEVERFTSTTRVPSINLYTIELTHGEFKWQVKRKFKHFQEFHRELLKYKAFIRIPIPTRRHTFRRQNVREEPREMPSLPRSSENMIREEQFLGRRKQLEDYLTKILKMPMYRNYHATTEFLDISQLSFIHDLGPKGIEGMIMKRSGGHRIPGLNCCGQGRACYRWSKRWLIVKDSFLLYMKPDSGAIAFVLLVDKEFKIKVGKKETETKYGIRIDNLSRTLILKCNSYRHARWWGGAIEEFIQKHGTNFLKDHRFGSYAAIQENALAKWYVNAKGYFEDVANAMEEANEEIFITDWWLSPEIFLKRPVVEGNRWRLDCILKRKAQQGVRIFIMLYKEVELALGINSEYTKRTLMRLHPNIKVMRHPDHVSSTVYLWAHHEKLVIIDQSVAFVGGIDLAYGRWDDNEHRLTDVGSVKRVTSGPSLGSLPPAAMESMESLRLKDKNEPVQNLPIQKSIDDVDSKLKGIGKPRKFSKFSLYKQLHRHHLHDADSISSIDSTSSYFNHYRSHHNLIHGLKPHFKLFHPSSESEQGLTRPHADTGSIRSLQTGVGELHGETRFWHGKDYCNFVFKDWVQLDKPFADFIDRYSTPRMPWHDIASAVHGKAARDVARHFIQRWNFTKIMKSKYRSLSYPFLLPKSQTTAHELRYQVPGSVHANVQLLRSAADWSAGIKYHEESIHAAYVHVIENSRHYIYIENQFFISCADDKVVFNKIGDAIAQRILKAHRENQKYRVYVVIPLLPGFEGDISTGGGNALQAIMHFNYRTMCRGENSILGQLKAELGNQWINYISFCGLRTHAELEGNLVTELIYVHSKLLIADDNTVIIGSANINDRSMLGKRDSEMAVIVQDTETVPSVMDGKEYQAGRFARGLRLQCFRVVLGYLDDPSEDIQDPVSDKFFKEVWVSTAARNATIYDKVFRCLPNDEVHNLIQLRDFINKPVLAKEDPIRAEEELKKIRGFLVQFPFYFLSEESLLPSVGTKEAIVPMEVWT
Description: PLD1 inhibitor potency in cells, dose response (AID 602151).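 Note: cellular PLD1 assay in Calu-1 cells stimulated with PMA.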 The format is functional.

For assay [5], the target named is T2, Sentrin-specific protease 7 (Homo sapiens, UniProt Q9BQF6).
T2 sequence (Q9BQF6 whole entry): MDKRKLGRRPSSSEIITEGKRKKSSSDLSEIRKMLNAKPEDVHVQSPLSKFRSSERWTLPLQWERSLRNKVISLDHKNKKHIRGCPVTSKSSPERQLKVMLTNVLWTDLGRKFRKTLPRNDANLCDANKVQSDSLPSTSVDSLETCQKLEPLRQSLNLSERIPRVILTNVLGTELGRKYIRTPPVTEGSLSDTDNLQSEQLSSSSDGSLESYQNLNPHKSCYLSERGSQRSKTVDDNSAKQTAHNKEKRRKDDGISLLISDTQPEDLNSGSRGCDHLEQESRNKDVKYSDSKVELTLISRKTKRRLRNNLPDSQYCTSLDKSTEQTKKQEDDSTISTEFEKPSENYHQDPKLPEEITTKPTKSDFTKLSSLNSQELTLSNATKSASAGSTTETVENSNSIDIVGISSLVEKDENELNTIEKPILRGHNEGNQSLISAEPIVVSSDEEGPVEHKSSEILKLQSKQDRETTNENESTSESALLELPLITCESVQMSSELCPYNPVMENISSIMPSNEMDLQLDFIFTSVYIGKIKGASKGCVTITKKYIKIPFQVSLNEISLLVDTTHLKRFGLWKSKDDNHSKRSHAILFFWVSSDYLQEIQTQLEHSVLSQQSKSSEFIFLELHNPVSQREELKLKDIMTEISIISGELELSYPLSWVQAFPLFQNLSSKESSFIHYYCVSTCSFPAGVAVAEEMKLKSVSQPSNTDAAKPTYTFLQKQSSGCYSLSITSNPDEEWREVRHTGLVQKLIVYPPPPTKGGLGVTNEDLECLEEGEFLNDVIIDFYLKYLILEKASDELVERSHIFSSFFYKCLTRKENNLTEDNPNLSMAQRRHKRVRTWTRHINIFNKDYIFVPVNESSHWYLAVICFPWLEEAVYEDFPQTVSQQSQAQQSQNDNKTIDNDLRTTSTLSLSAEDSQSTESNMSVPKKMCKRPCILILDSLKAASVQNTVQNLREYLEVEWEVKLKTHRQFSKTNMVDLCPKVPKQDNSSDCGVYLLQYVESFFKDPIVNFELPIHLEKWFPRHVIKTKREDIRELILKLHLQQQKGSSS
Description: SENP7 protease inhibitors, SAR follow-up, biochemical, luminescence, set 2 (AID 588600). Type of assay: functional.

Assay [6] has as its target T3, Sentrin-specific protease 6 (Homo sapiens, UniProt Q9GZR1).
T3 sequence (Q9GZR1 whole entry): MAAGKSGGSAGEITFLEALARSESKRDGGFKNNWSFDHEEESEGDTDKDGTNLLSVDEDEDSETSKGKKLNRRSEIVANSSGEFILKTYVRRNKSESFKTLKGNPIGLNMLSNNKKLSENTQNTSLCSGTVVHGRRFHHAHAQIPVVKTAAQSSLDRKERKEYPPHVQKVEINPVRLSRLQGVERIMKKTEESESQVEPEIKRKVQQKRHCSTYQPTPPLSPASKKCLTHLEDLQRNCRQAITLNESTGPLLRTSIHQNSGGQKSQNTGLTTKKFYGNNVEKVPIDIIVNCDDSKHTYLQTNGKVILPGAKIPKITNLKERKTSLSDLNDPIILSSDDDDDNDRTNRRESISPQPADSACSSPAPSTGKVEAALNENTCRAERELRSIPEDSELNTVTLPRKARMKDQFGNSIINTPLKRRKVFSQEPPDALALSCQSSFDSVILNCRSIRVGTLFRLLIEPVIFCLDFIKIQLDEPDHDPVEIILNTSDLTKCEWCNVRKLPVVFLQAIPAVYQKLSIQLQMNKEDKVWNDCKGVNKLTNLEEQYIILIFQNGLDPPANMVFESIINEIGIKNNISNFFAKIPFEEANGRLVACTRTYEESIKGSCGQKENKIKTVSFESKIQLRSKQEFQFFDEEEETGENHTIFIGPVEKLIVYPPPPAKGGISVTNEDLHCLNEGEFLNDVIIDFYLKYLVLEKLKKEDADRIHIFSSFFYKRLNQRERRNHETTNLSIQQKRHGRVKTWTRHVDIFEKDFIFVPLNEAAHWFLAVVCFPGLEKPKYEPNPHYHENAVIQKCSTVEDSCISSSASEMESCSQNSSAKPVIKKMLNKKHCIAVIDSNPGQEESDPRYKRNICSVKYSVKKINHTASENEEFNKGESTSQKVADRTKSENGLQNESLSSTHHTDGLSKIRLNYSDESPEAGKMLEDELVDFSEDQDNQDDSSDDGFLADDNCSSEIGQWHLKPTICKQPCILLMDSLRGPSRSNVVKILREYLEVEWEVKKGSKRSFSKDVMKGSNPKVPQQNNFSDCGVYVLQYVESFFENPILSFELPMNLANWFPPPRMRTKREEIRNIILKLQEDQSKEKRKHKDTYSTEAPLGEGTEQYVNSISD
Description: SENP6 protease inhibitors, SAR follow-up, biochemical, luminescence, set 2 (AID 588598). The format is functional.

For assay [7], the target named is T4, Sentrin-specific protease 8 (Homo sapiens, UniProt Q96LD8).
T4 sequence (Q96LD8 whole entry): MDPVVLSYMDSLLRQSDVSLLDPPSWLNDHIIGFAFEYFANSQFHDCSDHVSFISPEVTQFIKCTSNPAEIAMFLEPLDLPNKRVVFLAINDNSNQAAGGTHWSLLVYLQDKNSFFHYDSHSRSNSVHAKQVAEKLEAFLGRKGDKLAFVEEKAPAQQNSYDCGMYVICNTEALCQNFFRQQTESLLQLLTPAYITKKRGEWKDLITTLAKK
The experiment in a line: SENP8 protease inhibitors, SAR follow-up, biochemical, luminescence, set 2 (AID 588601). Type of assay: functional.

The target of a further assay is T5, Caspase-3 (Homo sapiens, UniProt P42574).
T5 sequence (P42574 whole entry): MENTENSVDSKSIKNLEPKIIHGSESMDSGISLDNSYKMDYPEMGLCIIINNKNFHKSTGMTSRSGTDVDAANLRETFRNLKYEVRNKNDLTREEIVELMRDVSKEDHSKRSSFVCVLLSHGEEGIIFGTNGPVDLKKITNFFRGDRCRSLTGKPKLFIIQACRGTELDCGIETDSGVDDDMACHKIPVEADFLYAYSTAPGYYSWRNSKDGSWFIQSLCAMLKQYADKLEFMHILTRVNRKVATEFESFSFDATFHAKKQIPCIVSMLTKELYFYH
The experiment in a line: caspase-3 inhibitors as off-family protease, SAR follow-up, selectivity assay for SENP protease inhibitor project, biochemical, luminescence, set 2 (AID 588599). The format is functional.

Sequence of Genome polyprotein (P29990 2492-3391 limits assumed): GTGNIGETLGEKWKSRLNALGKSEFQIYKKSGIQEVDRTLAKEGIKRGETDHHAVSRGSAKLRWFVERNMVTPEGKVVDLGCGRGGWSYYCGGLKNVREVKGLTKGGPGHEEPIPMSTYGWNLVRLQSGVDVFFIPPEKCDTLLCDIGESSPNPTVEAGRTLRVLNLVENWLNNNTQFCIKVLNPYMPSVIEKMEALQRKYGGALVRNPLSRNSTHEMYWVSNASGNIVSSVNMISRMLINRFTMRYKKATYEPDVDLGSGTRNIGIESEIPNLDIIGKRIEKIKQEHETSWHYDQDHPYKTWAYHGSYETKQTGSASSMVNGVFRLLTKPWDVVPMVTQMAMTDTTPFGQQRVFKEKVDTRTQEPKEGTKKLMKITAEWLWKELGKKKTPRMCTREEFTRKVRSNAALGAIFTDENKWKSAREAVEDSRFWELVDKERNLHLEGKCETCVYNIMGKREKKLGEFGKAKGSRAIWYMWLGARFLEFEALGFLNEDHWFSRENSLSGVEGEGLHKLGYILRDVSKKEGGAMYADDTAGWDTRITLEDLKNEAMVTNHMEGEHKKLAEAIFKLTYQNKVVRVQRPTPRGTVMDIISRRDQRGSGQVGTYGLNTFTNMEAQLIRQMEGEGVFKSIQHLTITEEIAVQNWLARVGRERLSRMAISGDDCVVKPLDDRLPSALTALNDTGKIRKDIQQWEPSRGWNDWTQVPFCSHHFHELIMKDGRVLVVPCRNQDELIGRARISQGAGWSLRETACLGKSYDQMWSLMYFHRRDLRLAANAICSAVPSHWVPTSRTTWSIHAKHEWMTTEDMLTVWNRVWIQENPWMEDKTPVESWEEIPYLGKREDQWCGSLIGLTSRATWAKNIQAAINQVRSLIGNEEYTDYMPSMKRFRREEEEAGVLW

Regarding `Cc1ccc2cccc(N)c2n1`, the IC50 with Jurkat is > 79 µM (inactive); in the assay on HEK293 [1] it was > 79 µM (inactive); with HEK293 [2] it was > 80 µM (inactive).
As to `COc1cc(O)cc2cc3c(c(O)c12)C(=O)CC(C)(O)O3` (centres undefined), the AC50 in [3] was 2.92 µM (active). Besides, the values for the IC50 (at Protein Rev; in [4]; on Genome polyprotein) were 16.2 µM (not active), 2.96 µM (active) and 38.1 µM (active), respectively. Besides, the cytotoxic concentration (CC50) in the assay on Vero was > 40 µM (active).
`C[C@@H](CN1CCC(n2c(=O)[nH]c3ccc(F)cc32)CC1)NC(=O)c1ccc(Cl)cc1`: the figures for the IC50 on Phospholipase D2 and at Phospholipase D1 were 0.434 µM (active) and 0.004 µM (active), respectively.
Regarding `CC(=O)Nc1ccc2nc(NC(=O)c3n[nH]c4ccccc34)sc2c1`, the IC50 is > 99 µM (inactive) in assay [5], > 99 µM (inactive) in [6], 40.3 µM (active) in assay [7] and 4.41 µM (active) at Caspase-3.

Values taken from ChEMBL document CHEMBL1201862, “PubChem BioAssay data set” (2004).
